Data on twelve molecules can be found in patent US11884647B2, “Compounds and methods for targeting pathogenic blood vessels” (THE REGENTS OF THE UNIVERSITY OF CALIFORNIA, priority 2019, dated 2024).

The subject of assay [1] is tumor endothelial cells (CT26.CL25 colon cancer tumor). The assay is described as follows: Colon CT26 ex vivo model of tumor angiogenesis. The class given is cell-based. The following applies: Mus musculus, CT26, 48 h, read-out: Cell death. As for the experimental part:
This example describes a procedure to prepare a primary tumor angiogenesis model for assessing the efficacy of anti-cancer candidate agents.
1. The day before the experiment, spray all necessary tools with 70% ethanol and sterilize them under UV light overnight, including blade, dissecting and micro-dissecting scissors and […]. Place 24-well dishes at 4° C. to pre-chill plates and thaw Matrigel 24 hours before tumor dissection.
2. Spray 70% ethanol on working bench. Prepare two sterile petri dishes with 10 mL sterile PBS. Steps 3 and 4 are for mouse tumor models. For fresh human tumor, directly go to step 5.
3. Euthanize the tumor-bearing mice. Spray 70% ethanol on the mouse and remove the tumor using sterilized dissecting tools (avoid the fur). Rinse the tumor in petri dish with sterile PBS to remove ethanol and fur. Transfer the tumor to a new petri dish with PBS for dissection. Place the dish on ice.
4. Using pre-chilled sterile pipet tips to seed regular Matrigel in 24 well plates on ice. Matrigel (30 μL) is dropped in the middle of each well without touching the edge of the well (avoid introducing bubbles if possible).
5. Cut the tumor in halves using the sterile blade. Identify and isolate healthy tumor tissue that is not necrotic and is within the tumor capsule. Cut the healthy tumor tissue into small pieces. For instance, a suitable size for the tumor tissue is 0.5 mm (H)×0.5 mm (L)×0.3 mm (D) with a total volume of 0.075 mm^3.
6. Gently transfer and embed each tumor piece in the Matrigel drop in the 24-well plate. Place the embedded piece in the bottom and middle of each Matrigel drop. Keep the plate on ice all the time.
7. After seeding the tumor pieces, plates are incubated in a 37° C. cell culture incubator without medium for 10 minutes in order for the Matrigel to solidify.
8. Endothelial Growth Medium (0.5 mL) is added to each well and incubated at 37° C. with 5% CO2. Wait until the new endothelial cells have grown out of the tumor or are larger than 3 mm in diameter until treatment. This usually takes 4 days for the LL2 Lewis lung cancer model and 7 days for the CT26 colon cancer model. For human tumor models, the growth time is typically 2-3 weeks, depending on the tumor type. Media is changed every 4 days during prolonged culture. Typically, when the tumor tissue grows to 2 mm in diameter, it is good for drug testing. A size of about 3 mm in diameter can make visualization easier.
9. When the assay is ready to be analyzed for cell death (e.g., 48 hours after drug addition), prepare the dye mixture by mixing 6 μL of green dye to stain live cells (5 mg/mL Fluorescein diacetate or FDA in DMSO) with 30 μL of red dye (2.5 mg/mL Propidium iodide or PI in PBS) to stain dead cells in an Eppendorf tube. The FDA dye needs to be stored frozen in a −20° C. freezer because it has a labile ester bond.
10. Add 1 μL of the dye mixture to each well of the 24-well dish. It is usually performed one 24-well dish at a time given the amount of time needed to take pictures (the green dye is not as stable in the cells in the long term).
11. Gently rock the dish a few times to mix the dye with the media in the wells and incubate the dish at 37° C. for 10 min (too long incubation can make the green signal too intense).
12. Wash each well with 0.5 mL of sterile PBS and then add 0.5 mL of phenol red free SFM to each well. Alternatively 0.5 mL of regular Endothelial Cell Growth Media can be added to each well if this well needs to be continuously maintained after the experiment.
13. Look through all wells on an inverted microscope using the 2× objective lens to observe morphological changes.
14. Taking pictures in the red and green channels would allow not only the recording of the result but also more accurate quantitation of the result. To take pictures for all the wells, first pick a well that has robust red and green signals. […]

Assay [2] deals with tumor endothelial cells (LL/2 lung cancer tumor). The experiment in a line: Lung LL2 ex vivo model of tumor angiogenesis. It counts as cell-based, mouse. The following applies: Mus musculus, Endothelial cell, 48 h, read-out: Cell death. The gist of the method: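 Mouse LL2 tumor fragments (~0.5×0.5×0.3 mm) embedded in Matrigel and grown in endothelial growth medium at 37° C until endothelial outgrowth (about 4 days) before drug treatment. About 48 h after drug addition, stained 10 min with fluorescein diacetate/propidium iodide; live (green) and dead (red) cells imaged at 2× with fixed channel settings.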

Take `CCc1ccc(S(=O)(=O)c2cnc3ccc(OC(F)(F)F)cc3c2-n2cncn2)cc1` [compound 51, 3-((4-ethylphenyl)sulfonyl)-4-(1H-1,2,4-triazol-1-yl)-6-(trifluoromethoxy)quinoline]: the cytotoxicity at 40 µM was found to be 20% in assay [1] and 100% in assay [2].

For `CCc1ccc(S(=O)(=O)c2cnc3ccc(OC(F)(F)F)cc3c2N2CCC3(CC2)OCCO3)cc1` [compound 52, 8-(3-((4-ethylphenyl)sulfonyl)-6-(trifluoromethoxy)quinolin-4-yl)-1,4-dioxa-8-azaspiro[4.5]decane], the cytotoxicity at 40 µM in assay [1] is 0%; in assay [2] it was 50%.

With `N#Cc1ccc(S(=O)(=O)c2cnc3ccc(OC(F)(F)F)cc3c2N2CCC(N3CCCCC3)CC2)cc1` [compound 54, 4-((4-([1,4′-bipiperidin]-1′-yl)-6-(trifluoromethoxy)quinolin-3-yl)sulfonyl)benzonitrile], the figures for the cytotoxicity at 40 µM in assay [1] and in assay [2] were 10% and 50%, respectively.

For the molecule `CCc1ccc(S(=O)(=O)c2cnc3ccc(CC#N)cc3c2N2CCC(N3CCCCC3)CC2)cc1` [compound 55, 2-(4-([1,4′-bipiperidin]-1′-yl)-3-((4-ethylphenyl)sulfonyl)quinolin-6-yl)acetonitrile], the cytotoxicity at 40 µM in assay [1] amounted to 50%; in assay [2] it was 70%.

For `COc1ccc(S(=O)(=O)c2cnc3ccc(OC(F)(F)F)cc3c2N2CCC(N3CCCCC3)CC2)cc1OC` [compound 56, 4-([1,4′-bipiperidin]-1′-yl)-3-((3,4-dimethoxyphenyl)sulfonyl)-6-(trifluoromethoxy)quinoline], the cytotoxicity at 40 µM in assay [1] was found to be 30%; in assay [2] it was 20%.

Turning to `COc1ccc(S(=O)(=O)c2cnc3ccc(OC(F)(F)F)cc3c2N2CCCN(C)CC2)cc1OC` [compound 57, 3-((3,4-dimethoxyphenyl)sulfonyl)-4-(4-methyl-1,4-diazepan-1-yl)-6-(trifluoromethoxy)quinoline], the cytotoxicity at 40 µM in assay [1] was 60%; in assay [2], 40%.

As to `COc1ccc(S(=O)(=O)c2cnc3ccc(OC(F)(F)F)cc3c2N2CCC(O)CC2)cc1OC` [compound 58, 1-(3-((3,4-dimethoxyphenyl)sulfonyl)-6-(trifluoromethoxy)quinolin-4-yl)piperidin-4-ol], the cytotoxicity at 40 µM in assay [1] and in assay [2] was 50% each time.

In the case of `O=[N+]([O-])c1ccc(S(=O)(=O)c2cnc3ccc(OC(F)(F)F)cc3c2N2CCC(N3CCCCC3)CC2)cc1` [compound 59, 4-([1,4′-bipiperidin]-1′-yl)-3-((4-nitrophenyl)sulfonyl)-6-(trifluoromethoxy)quinoline], the cytotoxicity at 40 µM in assay [1] came out at 50%; in assay [2] it was 40%.

`O=[N+]([O-])c1ccc(S(=O)(=O)c2cnc3ccc(OC(F)(F)F)cc3c2N2CCC(O)CC2)cc1` [compound 61, 1-(3-((4-nitrophenyl)sulfonyl)-6-(trifluoromethoxy)quinolin-4-yl)piperidin-4-ol]: the cytotoxicity at 40 µM in assay [1] stood at 20%; in assay [2], 50%.

Take `CCOC(=O)c1ccc2ncc(S(=O)(=O)c3ccc(CC)cc3)c(N3CCC(O)CC3)c2c1` [compound 62, ethyl 3-((4-ethylphenyl)sulfonyl)-4-(4-hydroxypiperidin-1-yl)quinoline-6-carboxylate]: the cytotoxicity at 40 µM in assay [1] amounted to 70%; in assay [2], 30%.

For the molecule `CCOC(=O)c1ccc2ncc(S(=O)(=O)c3ccc(CC)cc3)c(N3CCCN(C)CC3)c2c1` [compound 63, ethyl 3-((4-ethylphenyl)sulfonyl)-4-(4-methyl-1,4-diazepan-1-yl)quinoline-6-carboxylate], the cytotoxicity at 40 µM in assay [1] came out at 70%; in assay [2], 50%.

As for `CCOC(=O)c1ccc2ncc(S(=O)(=O)c3ccc(CC)cc3)c(N3CCC(N4CCCCC4)CC3)c2c1` [compound 64, ethyl 4-([1,4′-bipiperidin]-1′-yl)-3-((4-ethylphenyl)sulfonyl)quinoline-6-carboxylate], the cytotoxicity at 40 µM in assay [1] and in assay [2] was 100% in each case.
